Measurements taken from patent US8392127B2, “Methods and gene expression signature for assessing growth factor signaling pathway regulation status” (Merck Sharp & Dohme Corp., priority 2008, dated 2013).
“Also recorded” adds a separate entry of the source. Where two headings read alike, the source gives them in different places.

What was measured:
HCT116 = test: Sensitivity to cell killing by cMET inhibitor MK-2461; type: cell-based
HCT15 (or AGS) = test: as above; type: cell-based
A549 = test: as above; type: cell-based
HT29 = test: as above; type: cell-based
Colo205 = test: as above; type: cell-based
EBC-1 = test: as above; type: cell-based
GTL-16 = test: as above; type: cell-based
[1] = system: growth factor signaling pathway signature in EBC-1; test: Growth factor signaling pathway signature score after MK-2461 in cell lines (microarray); type: cell-based; details: 1 μM, 6 and 12 hours post-treatment
Experimental: (§1) Ten cell lines with alternations of the PI3K/MAPK pathway components were identified (see Table 6), including two cell lines with amplification of cMET (EBC-1 and GTL-16). […] To assess the regulation of the growth factor signaling pathway signature in these cells, these cell lines were treated with vehicle or 1 μM MK-2461. The cell lines were profiled at 6 and 12 hours post-treatment. Duplicate cultures were seeded in 6-well plates for each treatment group. Cell were ˜70% confluent at time of collection. Experiments were performed in duplicate.
(§2) RNA was harvested from both vehicle-treated and compound treated cells, and regulation of the growth factor signaling pathway by MK-2461 was assessed by comparing gene expression profiles of MK-2461 treated cells to vehicle treated cells. For every probe on the microarray, the log(10) ratio of expression in the MK-2461 treated samples relative to the cell line-matched vehicle treated samples was calculated. The growth factor signaling pathway signature score was calculated as the mean log(10) ratio of the genes in the “up” arm of the signature (see Table 5a) minus the mean log(10) ratio of the genes in the “down” arm of the signature (see Table 5b).

[2] = system: growth factor signaling pathway signature in GTL-16; test: as above; type: cell-based; details: 1 μM, 6 and 12 hours post-treatment
Experimental: as §1, §2

EBC-1 tumor cells = test: EBC-1 xenograft tumor growth; type: in vivo, HRLN female nu/nu mice
Experimental: (§3) HRLN female nu/nu mice were subcutaneously implanted with 5×10^6 EBC-1 tumor cells. Tumors were allowed to grow an average size of 450-500 mg before treatment was administered. Xenografts were treated with vehicle or 11, 34, or 112 mpk of MK-2461 (n=4 for each treatment group). […] Treatment was administered PO BID for 7 days. Tumors were harvested 2 hours after the final dose, as this was the estimated time to achieve Cmax.

[3] = system: growth factor signaling pathway signature in EBC-1 xenografts; test: Growth factor signaling pathway signature score in EBC-1 xenografts (microarray); type: in vivo, HRLN female nu/nu mice; details: 112 mpk PO BID for 7 days; tumors harvested 2 hours after the final dose
Experimental: as §3
RNA was harvested from both vehicle-treated and compound-treated samples. Regulation of the growth factor signaling pathway signature by MK-2461 was assessed by comparing gene expression profiles of MK-2461 treated samples to the mean gene expression profile of the 4 vehicle treated samples. The log(10) ratio of expression in the MK-2461 treated samples relative to the mean of the vehicle treated samples was calculated for every probe on the microarray. The growth factor signaling pathway signature score was calculated as the mean log(10) ratio of the genes in the “up” arm of the signature (see Table 5a) minus the mean log(10) ratio of the genes in the “down” arm of the signature (see Table 5b).

CSF-1729 = test: Patient-derived tumor xenograft growth inhibition (T/C); type: in vivo, NMRI female nu/nu mice; details: 500 μg/mouse ip once weekly
Excerpt: (§4) NMRI female nu/nu mice were subcutaneously implanted with patient-derived tumor xenografts: lung adenocarcinoma LXFA 526, LXFA 629, LXFA 677, LXFA 749 and LXFA 1012; squamous cell lung carcinoma LXFE, 211, LXFE 397, LXFE 409 and LXFE 1422; small cell lung cancer LXFS 538, LXFS 573 and LXFS 615; colorectal carcinoma CXF 94LX, CXF 158, CXF 280, CXF 975, CXF 1103 and CXF 1729; renal cell carcinoma RXF 393, RXF 423, RXF 631 and RXF 1220; gastric cancer GXF 97, GXF 251 and GXF 281; ovarian cancer OVXF 550, OVXF 899, OVXF 1023, OVXF 1353 and OVXF 1544 (Oncotest GmbH, Freiburg, Germany). All tumor xenografts were derived from surgical specimen from human patients and directly transplanted into nude mice for propagation. Tumor xenografts were passaged in nude mice until establishment of a stable growth pattern. Master stocks of early passage xenografts were frozen in liquid nitrogen. A particular master stock batch is typically only used for about 20 further passages. Tumor fragments were obtained from xenografts in serial passage in nude mice. After removal of tumors from donor mice, they were cut into fragments (1-2 mm diameter) and placed RPMI 1640 culture medium until subcutaneous implantation. Recipient mice were anesthetized by inhalation of isoflurane. Tumor fragments (1-2 per mouse) were transplanted subcutaneously into the backs of recipient mice. Animals carrying at least one tumor of appropriate size (mean tumor diameter 6-8 mm, minimum acceptable tumor diameter 5 mm) were considered for randomization into treatment and vehicle control groups.
(§5) MK-0646 IGF1R monoclonal antibody (U.S. Pat. No. 7,241,444) was diluted to a final dosing concentration of 2 mg/mL with 20 mM—L Histidine, 150 mM NaCl, 0.5% PS—80 w/w pH 6.5 at ratio of 1:5.65. The diluted treatment solution was administered at an application volume of 250 μl/mouse for the dose level of 500 μg/mouse. The control vehicle was 20 mM-L Histidine, 150 mM NaCl, 0.5% PS-80 w/w, pH6.5. Vehicle was administered at 250 μl/mouse. IGF1R monoclonal antibody and control vehicle were injected intraperitoneally. Test and control mice were injected once a week on the same days. The number of injections ranged from 2 to 7, depending on the duration of the experiment. Experiments were terminated when one of the limits set by the German animal regulations was met.
(§6) Each experiment consisted of a vehicle control group (Group 1) receiving 20 mM-L Histidine, 150 mM NaCl, 0.5% PS-80 w/w, pH6.5 at 250 μL/mouse ip once weekly and one group treated with IGF-1R at 500 μg/mouse ip once weekly (Group 2). For sample collection purposes each experiment also comprised two groups (Groups 3 and 4) receiving a single therapy either with the vehicle or with IGF-1R at the same dose levels. According to the study protocol the group size in the efficacy groups (Groups 1 and 2) was 7 mice while the sample collection groups (Group 3 and 4) contained 3 nude mice each. In the experiments with CXF 1103 and RXF 631 bearing mice the efficacy groups contained 8 mice and group size in the efficacy groups of the experiment with LXFE 211 bearing nude mice was 9. […]
(§7) Relative volumes of individual tumors (RTVs) for Day x were calculated by dividing the individual tumor volume on Day X (Tx) by the individual volume of the same tumor on Day 0 (T0) multiplied by 100%.
(§8) [formula] Group tumor volumes were expressed as the median RTV of all tumors in a group (group median RTV). […]

CSF-280 = test: as above; type: in vivo, NMRI female nu/nu mice; details: 500 μg/mouse ip once weekly
Excerpt: as §4, §5, §6, §7, §8

CSF-94LX = test: as above; type: in vivo, NMRI female nu/nu mice; details: 500 μg/mouse ip once weekly
Excerpt: as §4, §5, §6, §7, §8

LXFA-629 = test: as above; type: in vivo, NMRI female nu/nu mice; details: 500 μg/mouse ip once weekly
Excerpt: as §4, §5, §6, §7, §8

OVXF-899 = test: as above; type: in vivo, NMRI female nu/nu mice; details: 500 μg/mouse ip once weekly
Excerpt: as §4, §5, §6, §7, §8

MAXF-713 = test: as above; type: in vivo, NMRI female nu/nu mice; details: 500 μg/mouse ip once weekly
SXF-1186 = test: as above; type: in vivo, NMRI female nu/nu mice; details: 500 μg/mouse ip once weekly
[4] = system: growth factor signaling pathway signature in LXFA-629; test: Growth factor signaling pathway signature score post/pre-dose ratio in xenografts; type: in vivo, NMRI female nu/nu mice; details: 24 hours after a single treatment, 500 μg/mouse ip
Experimental: (§9) Animals of Groups 3 and 4 were sacrificed for sample collection when the tumors had volumes between 400 and 600 mm^3 and 24 hours after a single treatment with either the control vehicle (Group 3) or IGF1R (Group 4). Tumors were cut into two parts, snap frozen in liquid nitrogen and stored at −80° C. RNA was harvested from both vehicle-treated and MK0646-treated samples as previously described for hybridization to DNA oligonucleotide arrays.
(§10) Regulation of the growth factor signaling pathway signature by MK-0646 was assessed by comparing mean gene expression profiles of MK0646 treated samples for each xenograft to the mean gene expression profile of the vehicle treated samples. The log(10) ratio of expression in the MK-0646 treated samples relative to the vehicle treated samples was calculated for every probe on the microarray. The growth factor signaling pathway signature score was calculated as the mean log(10) ratio of the genes in the “up” arm of the signature (see Table 5a) minus the mean log(10) ratio of the genes in the “down” arm of the signature (see Table 5b). A post/pre-dose ratio of the growth factor signaling pathway signature score was then calculated and compared to the tumor inhibition T/C ratio for each xenograft (see FIG. 34).

[5] = system: growth factor signaling pathway signature in MAXF-713; test: as above; type: in vivo, NMRI female nu/nu mice; details: 24 hours after a single treatment, 500 μg/mouse ip
Experimental: as §9, §10

CN(C[C@@H]1COCCO1)S(=O)(=O)Nc1ccc2ccc3ncc(-c4cnn(C)c4)cc3c(=O)c2c1 [MK-2461, N-[(2R)-1,4-dioxan-2-ylmethyl]-N-methyl-N′-[3-(1-methyl-1H-pyrazol-4-yl)-5-oxo-5H-benzo[4,5]cyclohepta[1,2-b]pyridin-7-yl]sulfamide]
sensitive to MK2461 (HCT116): no | sensitive to MK2461 (HCT15 (or AGS)): no | sensitive to MK2461 (A549): no | sensitive to MK2461 (HT29): no | sensitive to MK2461 (Colo205): no | sensitive to MK2461 (EBC-1): sensitive to cell killing | sensitive to MK2461 (EBC-1; listed as MK2461): ✓ | sensitive to MK2461 (GTL-16): sensitive to cell killing | sensitive to MK2461 (GTL-16; listed as MK2461): ✓ | inhibition of the growth factor signaling pathway signature [1]: Inhibition of the growth factor signaling pathway signature was observed; also recorded: inhibition of the growth factor signaling pathway was only observed | inhibition of the growth factor signaling pathway signature [2]: Inhibition of the growth factor signaling pathway signature was observed; also recorded: inhibition of the growth factor signaling pathway was only observed | effect on tumor growth (EBC-1 tumor cells; 11 mpk PO BID): no effect on tumor growth | effect on tumor growth (EBC-1 tumor cells; 34 mpk PO BID): no effect on tumor growth | efficacy in xenografts (EBC-1 tumor cells; 112 mpk): only dose that resulted in efficacy | tumor growth inhibition compared to vehicle treatment (EBC-1 tumor cells; 112 mpk PO BID): approximately 30% | inhibition of the growth factor signaling pathway signature in xenografts [3]: Inhibition of the growth factor signaling pathway signature was only observed

MK-0646: IGF1R monoclonal antibody (U.S. Pat. No. 7,241,444)
tumor inhibition (T/C ratio) (CSF-1729): moderate response | tumor inhibition (T/C ratio) (CSF-280): moderate response | tumor inhibition (T/C ratio) (CSF-94LX): strong tumor inhibition | tumor inhibition (T/C ratio) (LXFA-629): strong tumor inhibition; also recorded: most tumor inhibition | tumor inhibition (T/C ratio) (OVXF-899): strong tumor inhibition | tumor inhibition (T/C ratio) (MAXF-713): strong tumor inhibition; also recorded: most tumor inhibition | tumor inhibition (T/C ratio) (SXF-1186): moderate response | growth factor signaling score post/pre-dose ratio [4]: low | growth factor signaling score post/pre-dose ratio [5]: low
